US20250205244A1, “METHODS OF TREATING MIGRAINE WITH MNK INHIBITORS” (4E Therapeutics, Inc., priority 2021, published 2025)

How the values were obtained:
WT mice, dural IL-6 = assay: Dural IL-6-induced acute facial hypersensitivity and grimace in mice; format: in vivo, mouse; settings: female and male WT mice; 10 mg/kg oral gavage prior to dural IL-6 (0.1 ng); compared to the vehicle group
Text: Female and male MNK1 KO mice were a gift of the Sonenberg laboratory at McGill University and bred at the University of Texas at Dallas (UTD) to generate experimental animals (Ueda T, et al., MNK2 and MNK1 are essential for constitutive and inducible phosphorylation of eukaryotic initiation factor 4E but not for cell growth or development. Mol Cell Biol. August 2004). Genotype was confirmed at weaning using DNA from ear clips. Experimental C57BL6/J wild-type (WT) animals were obtained from an internally maintained C57BL/6 J colony at the University of Texas at Dallas. For pharmacological studies, female and male ICR (CD-1) mice aged 6-8 weeks (˜25-30 g) were outbred and purchased from Envigo. All mice were housed in groups of four animals per cage on a 12-hour light-dark cycle and had access to food and water ad libitum. Upon arrival to the animal care facility, animals were allowed a minimum of 72 hours to acclimate to their new environment before being handled for experiments. All experiments were performed between the hours of 9:00 AM and 5:00 PM. All procedures were conducted with prior approval of the Institutional Animal Care and Use Committee at the University of Texas at Dallas.
For dural injections, human recombinant interleukin-6 (IL-6) protein (R&D Systems) stock solution ([…]) was prepared in sterile 0.1% BSA and diluted to 1 ng/ml in synthetic interstitial fluid (SIF) consisting of 135 mM NaCl, 5 mM KCl, 10 mM HEPES, 2 mM CaCl2), 10 mM glucose, 1 mM MgCl2 (pH 7.4, 310 mOsm). Sodium nitroprusside (SNP) (Sigma-Aldrich) was prepared fresh in sterile phosphate buffered saline (PBS) at the time of use and was kept away from light. To test for the presence of hyperalgesic priming, mice were given a 150 μL IP injection of 0.1 mg/kg of SNP or a 5 μL dural injection of SIF solution that was brought to a pH of 7.0, as previously described (Avona A., et al., Repetitive stress in mice causes migraine-like behaviors and CGRP-dependent hyperalgesic priming to a migraine trigger. Pain. (2020); Burgos-Vega C. C. et al., Non-invasive dural stimulation in mice: A novel preclinical model of migraine. Cephalalgia. (2019)). […] MNK inhibitors were given orally to WT mice at 10 mg/kg approximately 1 hr prior to dural IL-6 or dural pH 7.0.
Mouse dural injections were performed as previously described (Burgos-Vega C. C. et al., Non-invasive dural stimulation in mice: A novel preclinical model of migraine. Cephalalgia. (2019)). Mice were anesthetized under isoflurane for <2 min with <2.5-3% isoflurane via a chamber and given a 5 μL injection via a modified internal cannula (Invivo1, part #8IC313ISPCXC, Internal Cannula, standard, 28 gauge, fit to 0.5 mm). […]

[1] = tested on: WT mice, dural pH 7.0 after dural IL-6; assay: Hyperalgesic priming to dural pH 7.0 after dural IL-6 in mice; format: in vivo, mouse; settings: female and male WT mice
Text: Female and male MNK1 KO mice were a gift of the Sonenberg laboratory at McGill University and bred at the University of Texas at Dallas (UTD) to generate experimental animals (Ueda T, et al., MNK2 and MNK1 are essential for constitutive and inducible phosphorylation of eukaryotic initiation factor 4E but not for cell growth or development. Mol Cell Biol. August 2004). Genotype was confirmed at weaning using DNA from ear clips. Experimental C57BL6/J wild-type (WT) animals were obtained from an internally maintained C57BL/6 J colony at the University of Texas at Dallas. For pharmacological studies, female and male ICR (CD-1) mice aged 6-8 weeks (˜25-30 g) were outbred and purchased from Envigo. All mice were housed in groups of four animals per cage on a 12-hour light-dark cycle and had access to food and water ad libitum. Upon arrival to the animal care facility, animals were allowed a minimum of 72 hours to acclimate to their new environment before being handled for experiments. All experiments were performed between the hours of 9:00 AM and 5:00 PM. All procedures were conducted with prior approval of the Institutional Animal Care and Use Committee at the University of Texas at Dallas. […]

[2] = tested on: eIF4E phosphorylation at Serine 209 in the human embryonic kidney (HEK) 293 cell line; assay: Inhibition of eIF4E phosphorylation in HEK293 cells (phospho-specific antibody, fluorescent plate reader); format: cell-based; settings: HEK293, 2 h, eIF4E phosphorylation at Serine 209, HEK293 cells, 2 hours exposure
Experimental: The ability of MNK inhibitors described herein to inhibit eIF4E phosphorylation at Serine 209 in the human embryonic kidney (HEK) 293 cell line was tested by exposing the cells to compound for 2 hours and then measuring eIF4E phosphorylation with a phosphorylation-specific antibody in a fluorescent plate reader. These experiments were done with HEK-293 cells plated on 96 well plates. Following treatment, cells were fixed with ice cold methanol for 10 min and then washed in 1× phosphate buffered saline (PBS) and the permeabilized with 0.02% Triton X-100 in 10% normal goat serum made up in PBS. Primary antibody was applied overnight at a concentration dilution of 1:2000 (p-eIF4E antibody from Cell Signaling ab76256). Following washing, cells were then exposed to secondary antibody conjugated to alexa-fluor 488 and then visualized on a Syngergy HTX plate reader. Fluorescence for p-eIF4E was measured and normalized to total DAPI fluorescence to determine the percentage of eIF4E phosphorylation in each well. Data were plotted in Graphpad Prism V8 to determine concentration-response effects and calculate IC50 values.

[3] = biological target: recombinant human kinase, MNK2 (Homo sapiens, UniProt Q9HBH9); assay: MNK2 substrate phosphorylation assay; format: biochemical
[4] = biological target: recombinant human kinase, MNK1 (Homo sapiens, UniProt Q9BUB5); assay: MNK1 substrate phosphorylation assay; format: biochemical
recombinant human kinase, MNK1, sequence (Q9BUB5 whole entry): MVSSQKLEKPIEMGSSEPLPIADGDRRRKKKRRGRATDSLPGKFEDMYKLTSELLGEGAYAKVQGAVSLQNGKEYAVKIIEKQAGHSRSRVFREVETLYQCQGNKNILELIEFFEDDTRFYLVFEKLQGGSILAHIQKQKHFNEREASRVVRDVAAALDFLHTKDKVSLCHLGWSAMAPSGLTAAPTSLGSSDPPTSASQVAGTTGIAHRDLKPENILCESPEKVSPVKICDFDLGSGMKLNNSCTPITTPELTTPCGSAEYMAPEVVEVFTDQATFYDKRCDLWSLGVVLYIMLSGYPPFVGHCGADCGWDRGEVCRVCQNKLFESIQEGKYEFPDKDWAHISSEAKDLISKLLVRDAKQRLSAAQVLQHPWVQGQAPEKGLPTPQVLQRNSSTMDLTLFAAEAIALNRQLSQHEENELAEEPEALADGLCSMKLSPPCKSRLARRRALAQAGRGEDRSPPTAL

recombinant human kinase, MNK2, sequence (Q9HBH9 whole entry): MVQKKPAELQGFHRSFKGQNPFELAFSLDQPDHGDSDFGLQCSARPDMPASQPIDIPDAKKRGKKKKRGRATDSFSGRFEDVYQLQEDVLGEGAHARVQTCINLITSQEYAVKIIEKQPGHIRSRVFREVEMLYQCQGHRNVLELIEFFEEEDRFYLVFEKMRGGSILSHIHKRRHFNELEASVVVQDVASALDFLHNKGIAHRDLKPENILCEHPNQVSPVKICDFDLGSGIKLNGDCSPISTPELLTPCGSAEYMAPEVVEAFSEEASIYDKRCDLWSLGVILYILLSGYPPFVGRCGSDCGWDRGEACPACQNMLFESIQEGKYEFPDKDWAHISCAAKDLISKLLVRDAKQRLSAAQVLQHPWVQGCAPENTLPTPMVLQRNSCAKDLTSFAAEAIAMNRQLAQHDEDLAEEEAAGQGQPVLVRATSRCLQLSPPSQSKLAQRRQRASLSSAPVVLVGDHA

SMILES	dural IL-6 induced facial grimace measures (grimace score) (WT mice, dural IL-6)	dural IL-6 induced facial hypersensitivity (periorbital von Frey) (WT mice, dural IL-6)	hyperalgesic priming to dural pH 7.0 ([1]; 10 mg/kg oral gavage prior to dural IL-6, later tested with dural SIF pH 7.0)	hyperalgesic priming to dural pH 7.0 ([1]; 10 mg/kg oral gavage prior to dural pH 7.0, compared to the vehicle group)	IC50 [2] [nM]	IC50 [3] [nM]	IC50 [4] [nM]
Cc1cc(Nc2cc(N)ncn2)c(=O)n2c1C(=O)NC21CCCC2(CC2)CC1 (racemic) [rac-4ET-01-027, 6″-((6-aminopyrimidin-4-yl)amino)-8″-methyl-2″H-dispiro[cyclopropane-1,1′-CYCLOHEPTANE-4′,3″-imidazo[1,5-a]pyridine]-1″,5″-dione]	significantly attenuated						
Cc1cc(Nc2cc(N)ncn2)c(=O)n2c1C(=O)NC21CCCCC1 [eFT508, reference compound]	significantly attenuated	significantly attenuated	did not prime to dural pH 7.0	did not prime to pH 7.0			
Nc1cc(Nc2cc(Cl)c3n(c2=O)C2(CCC4(CC4)CC2)NC3=O)ncn1 [4ET-04-023]	significantly attenuated				1.2	1.86	36.8
Cc1cc(Nc2cc(N)ncn2)c(=O)n2c1C(=O)NC21CCC2(CCC2)C1 (stereo not drawn) [4ET-01-015]					3.9	2.6	30.9
